Source: ChEMBL document CHEMBL5338769, “Discovery of Norisoboldine Analogue III11 as a Novel and Potent Aryl Hydrocarbon Receptor Agonist for the Treatment of Ulcerative Colitis” (J Med Chem, 2023)
Calls of active or inactive are those of the source. The calls are words filed in the database; no cut-off is given here.

How the values were obtained:
EL4 = assay: Cytotoxicity against mouse EL4 cells assessed as inhibition of cell proliferation incubated for 72 hrs by MTT assay; assay type: functional, cell-based; details: EL4, 72 h
[1] = target: T1, Aryl hydrocarbon receptor (Mus musculus, UniProt P30561); assay: Activation of AhR transcription in C57BL/6 mouse naive T cells assessed as increase in CYP1A1 mRNA expression at 3 uM measured after 72 hrs by qRT-PCR analysis relative to control; assay type: cell-based; details: t cell
T1 sequence (P30561 whole entry): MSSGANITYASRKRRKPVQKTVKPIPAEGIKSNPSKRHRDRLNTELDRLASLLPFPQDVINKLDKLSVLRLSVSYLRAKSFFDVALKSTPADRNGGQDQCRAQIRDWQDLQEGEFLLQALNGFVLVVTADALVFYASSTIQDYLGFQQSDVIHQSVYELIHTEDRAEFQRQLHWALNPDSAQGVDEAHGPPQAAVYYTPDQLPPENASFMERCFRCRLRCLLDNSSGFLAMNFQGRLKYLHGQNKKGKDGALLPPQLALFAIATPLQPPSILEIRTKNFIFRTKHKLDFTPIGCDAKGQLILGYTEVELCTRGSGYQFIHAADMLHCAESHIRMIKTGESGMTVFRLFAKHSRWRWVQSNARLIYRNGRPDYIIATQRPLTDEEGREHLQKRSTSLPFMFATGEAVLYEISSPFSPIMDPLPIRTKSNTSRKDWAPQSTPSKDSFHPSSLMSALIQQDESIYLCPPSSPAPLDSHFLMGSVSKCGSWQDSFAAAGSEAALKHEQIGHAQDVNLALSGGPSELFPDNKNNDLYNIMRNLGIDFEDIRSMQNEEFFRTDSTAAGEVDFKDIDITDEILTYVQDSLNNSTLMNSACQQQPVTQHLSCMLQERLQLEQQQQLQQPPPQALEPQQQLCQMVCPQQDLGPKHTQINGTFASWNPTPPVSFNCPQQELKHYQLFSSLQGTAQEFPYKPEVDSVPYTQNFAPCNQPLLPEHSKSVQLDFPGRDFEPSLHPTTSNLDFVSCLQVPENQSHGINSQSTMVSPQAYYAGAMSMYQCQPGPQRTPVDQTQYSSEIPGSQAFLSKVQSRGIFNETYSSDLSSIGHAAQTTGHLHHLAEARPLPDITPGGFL

[2] = target: T1, Aryl hydrocarbon receptor; assay: Activation of AhR transcription in C57BL/6 mouse naive T cells assessed as increase in CYP1A1 mRNA expression at 1 to 3 uM measured after 72 hrs by qRT-PCR analysis; assay type: cell-based; details: t cell, dose 1-3 µM
Regulatory T cell [3] = assay: Induction of cell differentiation in C57BL/6 mouse naive regulatory T cells assessed as increase in […] mRNA level at 3 uM incubated for 72 hrs by qRT-PCR analysis; assay type: functional, cell-based
[4] = MRT in Sprague-Dawley rat at 30 mg/kg, po measured upto 1440 min by LC-MS/MS analysis; assay type: ADME, organism-based; details: in vivo
Regulatory T cell [5] = assay: Induction of cell differentiation in C57BL/6 mouse naive regulatory T cells assessed as increase in IL-10 mRNA level at 3 uM incubated for 72 hrs by qRT-PCR analysis; assay type: functional, cell-based
[6] = Unbound drug concentration in rat plasma at 10.67 ug/ml of total concentration measured after 12 hrs by ultrafiltration based HPLC analysis; assay type: ADME, cell-free; details: dose 10.67 µg/ml
Mus musculus [7] = assay: Anti-colitis activity in DSS-induced ulcerative colitis C57BL/6 mouse model assessed as CD4+CD25+Foxp3+ Treg cell percentage in spleen at 20 mg/kg, po administered once a day for 10 days by flow cytometric analysis (reference value: 3.3%); assay type: functional; details: time 10 day
[8] = target: T1, Aryl hydrocarbon receptor; assay: Activation of AhR transcription in C57BL/6 mouse naive T cells assessed as increase in CYP1A1 mRNA expression at 10 uM measured after 72 hrs by qRT-PCR analysis relative to control; assay type: cell-based; details: t cell
[9] = Induction of cell differentiation in C57BL/6 mouse naive regulatory T cells assessed as increase in cell frequency at 30 uM incubated for 72 hrs by flow cytometric analysis (reference value: 24.9%); assay type: functional
[10] = Cmax in Sprague-Dawley rat at 30 mg/kg, po measured at 120 min by LC-MS/MS analysis; assay type: ADME, organism-based; set-up: dose 30 mg/kg, time 120 min, route po; details: in vivo
[11] = Tmax in Sprague-Dawley rat at 30 mg/kg, po measured upto 1440 min by LC-MS/MS analysis; assay type: ADME, organism-based; details: in vivo
[12] = Induction of cell differentiation in C57BL/6 mouse naive regulatory T cells assessed as increase in cell frequency at 1 uM incubated for 72 hrs by flow cytometric analysis (reference value: 24.9%); assay type: functional
Mus musculus [13] = assay: Anti-colitis activity in DSS-induced ulcerative colitis C57BL/6 mouse model assessed as CD4+CD25+Foxp3+ Treg cell percentage in spleen at 10 mg/kg, po administered once a day for 10 days by flow cytometric analysis (reference value: 3.3%); assay type: functional; details: time 10 day
Mus musculus [14] = assay: In vivo activation of AhR in C57BL/6 mouse assessed as increase in CYP1A1 mRNA expression at 10 to 20 mg/kg, po administered once a day for 10 days by qRT-PCR analysis; assay type: functional, organism-based; details: dose 10-20 mg/kg, time 10.0 day
[15] = Induction of cell differentiation in C57BL/6 mouse naive regulatory T cells assessed as increase in cell frequency at 3 uM incubated for 72 hrs by flow cytometric analysis (reference value: 24.9%); assay type: functional
[16] = Apparent oral clearance in Sprague-Dawley rat at 3 mg/kg, iv measured upto 1440 min by LC-MS/MS analysis; assay type: ADME, organism-based; details: in vivo, 24 h
[17] = AUC(0 to infinity) in Sprague-Dawley rat at 3 mg/kg, iv measured upto 1440 min by LC-MS/MS analysis; assay type: ADME, organism-based; set-up: dose 3 mg/kg, time < 1440 min, route iv; details: in vivo
Regulatory T cell [18] = assay: Induction of cell differentiation in C57BL/6 mouse naive regulatory T cells at 10 uM incubated for 72 hrs by flow cytometric analysis; assay type: functional, cell-based
[19] = Apparent oral clearance in Sprague-Dawley rat at 30 mg/kg measured upto 1440 min by LC-MS/MS analysis; assay type: ADME, organism-based; details: in vivo, 24 h
[20] = Induction of cell differentiation in C57BL/6 mouse naive regulatory T cells assessed as increase in cell frequency at 10 uM incubated for 72 hrs by flow cytometric analysis (reference value: 24.9%); assay type: functional
[21] = Half-life in Sprague-Dawley rat at 30 mg/kg, po measured upto 1440 min by LC-MS/MS analysis; assay type: ADME, organism-based; details: in vivo
[22] = Protein binding in rat plasma at 10.67 ug/ml of total concentration measured after 12 hrs by ultrafiltration based HPLC analysis; assay type: ADME, cell-free; details: at 10.67 µg/mL, read-out: PPB (converted)
[23] = AUC(0 to infinity) in Sprague-Dawley rat at 30 mg/kg, po measured upto 1440 min by LC-MS/MS analysis; assay type: ADME, organism-based; set-up: time < 1440 min, dose 30 mg/kg, route po; details: in vivo
Mus musculus [24] = assay: Anti-colitis activity in DSS-induced ulcerative colitis C57BL/6 mouse model assessed as increase in CD4+CD25+Foxp3+ Treg cell ratio in mesenteric lymph nodes at 20 mg/kg, po administered once a day for 10 days by flow cytometric analysis (reference value: 4.5 %); assay type: functional; details: time 10 day
[25] = MRT in Sprague-Dawley rat at 3 mg/kg, iv measured upto 1440 min by LC-MS/MS analysis; assay type: ADME, organism-based; details: in vivo
[26] = Cmax in Sprague-Dawley rat at 3 mg/kg, iv measured at 120 min by LC-MS/MS analysis; assay type: ADME, organism-based; set-up: time 120 min, dose 3 mg/kg, route iv; details: in vivo
[27] = Unbound drug concentration in rat plasma at 37.38 ug/ml of total concentration measured after 12 hrs by ultrafiltration based HPLC analysis; assay type: ADME, cell-free; details: dose 37.38 µg/ml
[28] = Half-life in Sprague-Dawley rat at 3 mg/kg, iv measured upto 1440 min by LC-MS/MS analysis; assay type: ADME, organism-based; details: in vivo
[29] = Oral bioavailability in Sprague-Dawley rat at 30 mg/kg measured upto 1440 min by LC-MS/MS analysis; assay type: ADME, organism-based; details: in vivo
[30] = target: T1, Aryl hydrocarbon receptor; assay: Activation of AhR transcription in C57BL/6 mouse naive T cells assessed as increase in CYP1A1 mRNA expression by measuring fold change at 10 uM measured after 72 hrs by qRT-PCR analysis relative to control; assay type: cell-based; details: T-cell, read-out: FC
Mus musculus [31] = assay: Anti-colitis activity in DSS-induced ulcerative colitis C57BL/6 mouse model assessed as increase in CD4+CD25+Foxp3+ Treg cell ratio in mesenteric lymph nodes at 10 mg/kg, po administered once a day for 10 days by flow cytometric analysis (reference value: 4.5 %); assay type: functional; details: time 10 day
[32] = Unbound drug concentration in rat plasma at 20.13 ug/ml of total concentration measured after 12 hrs by ultrafiltration based HPLC analysis; assay type: ADME, cell-free; details: dose 20.13 µg/ml
[33] = target: T1, Aryl hydrocarbon receptor; assay: Activation of AhR transcription in C57BL/6 mouse naive T cells assessed as increase in CYP1A1 mRNA expression at 1 uM by qRT-PCR analysis; assay type: cell-based; details: t cell
[34] = target: T1, Aryl hydrocarbon receptor; assay: Activation of AhR transcription in C57BL/6 mouse naive T cells assessed as increase in UGT1A1 mRNA expression at 1 to 3 uM by qRT-PCR analysis; assay type: cell-based; details: t cell, dose 1-3 µM
[35] = target: T1, Aryl hydrocarbon receptor; assay: Activation of AhR transcription in C57BL/6 mouse naive T cells assessed as increase in CYP1B1 mRNA expression at 1 to 3 uM by qRT-PCR analysis; assay type: cell-based; details: t cell, dose 1-3 µM
[36] = target: T1, Aryl hydrocarbon receptor; assay: Activation of AhR transcription in C57BL/6 mouse naive T cells assessed as increase in AhRR mRNA expression at 1 to 3 uM by qRT-PCR analysis; assay type: cell-based; details: t cell, dose 1-3 µM
[37] = target: T1, Aryl hydrocarbon receptor; assay: Activation of AhR transcription in C57BL/6 mouse naive T cells assessed as increase in CYP1A1 mRNA expression at 1 to 3 uM by qRT-PCR analysis; assay type: cell-based; details: t cell, dose 1-3 µM

Structure (SMILES): COc1ccc2c(c1)-c1c(OC)c(OC)cc3c1C(C2)NCC3 (stereo unspecified)
- IC50 (EL4): 20.7 µM
- Activity [1]: 177%

Structure (SMILES): COc1cc2c(cc1O)CC1c3c(cc(O)c(OC)c3-2)CCN1C (stereo unspecified)
- IC50 (EL4): 70.1 µM
- Activity [1]: 222%

Structure (SMILES): COc1cc2c3c(c1)-c1ccc(OCc4ccccc4)cc1CC3N(C(=O)OCc1ccccc1)CC2 (stereo unspecified)
- Activity [2]: Not Active

Structure (SMILES): COc1cccc(CCN)c1
- Activity [2]: Not Active

Structure (SMILES): O=Cc1cc(O)ccc1Br
- Activity [2]: Not Active

Structure (SMILES): COc1cc2c(cc1O)CC1NCCc3cc(OC)c(O)c-2c31 (stereo unspecified)
- Activity (Regulatory T cell [3]): inactive
- MRT [4]: 42.2 min
- Activity (Regulatory T cell [5]): inactive
- Cp(f) [6]: 5200 ng/mL
- Activity (Mus musculus [7]): 3.6%
- Activity [8]: 208.3%
- Activity [9]: 37.8%
- Cmax [10]: 34.1 ng/mL
- Tmax [11]: 16 min
- Activity [12]: 25.4%
- Activity (Mus musculus [13]): 3%
- Activity (Mus musculus [14]): Active
- IC50 (EL4): 80 µM
- Activity [15]: 26.6%
- CL/F [16]: 0 mg/(ng/ml)/min
- AUC(0-inf) [17]: 112 ng·h/mL
- Activity (Regulatory T cell [18]): Active
- CL/F [19]: 0.02 mg/(ng/ml)/min
- Activity [20]: 32%
- half-life [21]: 23.3 min
- fraction unbound at 12 h, 10.67 ug/ml [22]: 0.488
- AUC(0-inf) [23]: 27.8 ng·h/mL
- Activity (Mus musculus [24]): 6%
- MRT [25]: 20.6 min
- Cmax [26]: 245 ng/mL
- Cp(f) [27]: 18360 ng/mL
- half-life [28]: 14.1 min
- bioavailability [29]: 2.49%
- fold induction at 10 µM [30]: 2.1
- Activity (Mus musculus [31]): 5.6%
- Cp(f) [32]: 10020 ng/mL

Structure (SMILES): COc1cc2c(cc1O)CC1c3c(cc(OC)c(O)c3-2)CCN1C(=O)OC(C)(C)C (stereo unspecified)
- Activity [33]: Active
- IC50 (EL4): 37 µM

Structure (SMILES): CO/C=C/c1cc(OCc2ccccc2)ccc1Br
- Activity [2]: Not Active

Structure (SMILES): COc1cc2c3c(c1OC)-c1cc(O)ccc1CC3NCC2 (stereo unspecified)
- Activity [34]: Not Active
- Activity [35]: Not Active
- IC50 (EL4): 25.9 µM
- Activity [36]: Not Active
- Activity [37]: Not Active

Structure (SMILES): COc1cc2c3c(c1OC)-c1ccccc1CC3N(C)CC2 (stereo not drawn) [(+/-)-NUCIFERINE]
- Activity [34]: Not Active
- Activity [35]: Not Active
- IC50 (EL4): 35.9 µM
- Activity [36]: Not Active
- Activity [37]: Not Active
